In patent US8557565B2, “Degradation of polycyclic aromatic hydrocarbons to render them available for biodegradation” (priority 1999, dated 2013):
Blank lines part the entries; values can stand above or below the compound they belong to.

Key:
[1] = Mass and COD balance of PAH-packed column fed with ozonated water; settings: pyrene-loaded column, 4 h ozonation
[2] = Saturated aqueous solution (dissolution equilibrium in water); settings: equilibrium overnight, 0.45-μm filtered
[3] = Ozonation reaction kinetics of spilt oil constituents in bipolar solvent; type: physicochemical; settings: for tentative estimated pseudo-first-order rate constant k′: ozonation of spilt oil (480 mg/L) in n-heptane/acetic acid 1:1 bipolar solvent, about 20° C.; for behaviour under ozonation in the bipolar solvent: spilt oil constituents
Description: In this work example, an innovative treatment is developed for spilt oils from southern Kuwait desert that involves ozonation in a homogeneous solvent system. The solvent is constituted of miscible n-heptane and acetic acid (1:1 by volume), both of that are relatively inexpensive, environmentally benign, and biodegradable. The solvent system allows dissolution of oil in its non-polar heptane constituent, while the hydrophilic acetic acid keeps the progressively more polar intermediates and byproducts being formed from ozonation of oil in solution as the reaction continues. The n-heptane and acetic acid were chosen because of their relatively slow reaction rate with ozone (kO3[M^−1 s^−1] about 10^−3˜1 for alkanes and 3×10^−5 for acetic acid.
The amount of oil to be employed in the bipolar solution was determined by its solubility in n-heptane and bipolar solvent.
The pseudo-first order rate constants were evaluated by linear regression of all data according to the equations given below. The reaction of ozone with contaminants can be expressed as a second order reaction: −dCA/dt=kCA[O3] (1) where: dCA/dt=rate of reaction of contaminant k=reaction rate constant CA=concentration of contaminant [O3]=concentration of ozone
In the present of excess and constant ozone concentration, the rate law for the reaction can be considered as pseudo-first order: −dCA/dt=k′CA (2)
A glass batch reactor with a working volume of 300 mL was used. Mixing in the reactor was provided by a magnetic mixer operating at 250 rpm. […] Ozone was sparged into the reactor near the bottom through a glass dispersion tube (ACE glass Inc.) Reaction batches were stopped after 0.25, 0.5, 1, 2, 3, 4, 5, 10, 20, 40, 60, 120, and 180 minutes of ozonation. Residual ozone was removed from solution by purging with a gentle N2 stream for 1 min. Samples were kept in 2-mL vials and preserved at 5° C. if necessary prior to GC analysis. Qualitative and quantitative analyses of oil and oxidized oil were performed simultaneously. All samples were concentrated by a gentle stream of N2 gas to best retain the intermediates with lower molecular weights.

[4] = Solubility and stability of O3 in aqueous and organic solvents; type: physicochemical; settings: bipolar solvent versus water or heptane alone
Experimental: The amount of oil to be employed in the bipolar solution was determined by its solubility in n-heptane and bipolar solvent. With an addition of 2.5 ml of distilled deionized water (about 5%) to a homogenous solution 50 ml of n-heptane and 50 ml of acetic acid, the solution was separated into two distinct phases: the n-heptane containing PAHs and other hydrophobic intermediates, and acetic acid phase (95% of acetic acid/5% DD water) containing the hydrophilic byproducts. In this example, about 480 mg/L of oil in the bipolar solvent was ozonated for different durations and the solution contents were analyzed accordingly. Both byproducts in the n-heptane phase and in the 95% acetic acid phase were analyzed by GC/FID, GC/FPD, and GC/MS after the separation. Ozone stability in different solvents: bipolar solvent, n-heptane, 95% acetic acid/5% DD water, and pure acetic acid were also tested by stopping after 20 minutes of ozonation and monitoring the ozone concentration immediately after.
Ozone was generated by an ozone generator (Model T-816, Polymetrics Corp.) from dry and filtered air at an applied voltage of 65V an air flow rate of 2 L/min. The concentration of ozone in the bipolar solvent was determined by absorbance at 270 nm with a spectrophotometer (HP 8452 UV-Vis spectrophotometer, Hewlett Packard Co.) using a predetermined extinction coefficient of 1955 M^−1 cm^−1. […]

Compound: c1cc2ccc3cccc4ccc(c1)c2c34 [Pyrene]
total amount degraded [1]: 0.365 mmol
saturated aqueous solution concentration [2]: 0.13 ppm

behaviour under ozonation in the bipolar solvent [3]: relatively resistant to ozonation
Compound: CCC(C)CCCC(C)CCCC(C)CCCC(C)C (stereo not drawn) [Phytane]
tentative estimated pseudo-first-order rate constant k′ [3]: 0.0178 s⁻¹
tentative estimated pseudo-first-order rate constant k′ ([3]; listed as phytane): 0.0178 s⁻¹

Compound: O=[O+][O-] [Ozone]
solubility and stability of O3 [4]: higher solubility and stability

behaviour under ozonation in the bipolar solvent [3]: relatively resistant to ozonation
Compound: CCCCCCCCCCCCCCCCCCCC [nC20, Icosane]
tentative estimated pseudo-first-order rate constant k′ [3]: 0.00198 s⁻¹
tentative estimated pseudo-first-order rate constant k′ ([3]; listed as n-icosane): 0.00198 s⁻¹
